From patent publication US10538549B2, “NNA-DNA adducts as biomarkers for detecting exposure to thirdhand smoke” (The Regents of the University of California, priority 2014, dated 2020)
Entries after “also recorded” stand apart in the source; their conditions may differ.

Tests used:
[1] = system: 2-deoxycytidine (dCyt); test: reaction of NNA with dCyt in vitro, adduct formation
Excerpt: NNA (1-(N-methyl-N-nitrosamino)-1-(3-pyridinyl)-4-butanal) is an important member of the carcinogenic/mutagenic tobacco-specific nitrosamines (TSNAs) and an unique constituent found in the most recently identified health risk called thirdhand smoke (THS). We studied the reactions of NNA with 2-deoxyguanosine (dGuo) and 2-deoxycytidine (dCyt) in vitro with regard to its ability to form stable base adducts, which have not been reported in literature at all. Herein we have identified and characterize potential specific THS biomarkers. We also describe experimental evidence for detrimental effects from exposure to THS, which could be useful for framing and enforcing new policies against indoor smoking.
Herein we describe the first evidence that reaction of NNA with dCyt in vitro results in formation of stable base adducts too, which have not been hereto for been reported in literature.
Using the alkaline Comet assay, we examined the potential of NNA to cause DNA strand breaks in cultured human hepatocellular carcinoma (HepG2) cells. Moreover, the ability of NNA to form DNA adducts with dGuo and dCyt in vitro was investigated and characterized using HPLC-UV, electrospray ionization mass spectrometry (ESI-MS/MS) and NMR. […]

[2] = system: HepG2 cells; test: alkaline Comet assay, DNA strand breaks; format: cell-based; conditions: human HepG2 cells, exposure 24 h, 37° C.
Excerpt: (§1) We recently examined the genotoxicity of NNA in human HepG2 cells as well as its ability to modify both 2-deoxyguanosine (dGuo) and 2-deoxycytodine (dCyt) in vitro. […] In the reaction of NNA with dGuo, several adducts were identified with HPLC-UV spectrum, ESI-MS/MS and NMR. These include 8-oxo-2′-deoxyguanosine (8-oxo-dG), 0^6-methyl-dG, and N^2-methyl-dG. NNA also forms a bulky dG adduct with m/z 455.17 for (M+H)^+ in mass spectrum, which is due to the condensation of NNA and dG with the elimination of H2O and two hydrogen molecules. In addition, NNA causes novel DNA sugar damage, forming […]. […] In addition, the NNA-specific DNA adducts identified can be used as specific biomarkers of THS exposure.
FIGS. 3A and 3B: Genotoxic effect of NNA in human HepG2 cells as measured by the Comet assay. HepG2 cells were exposed to varying doses of NNA dissolved in DMEM medium with/without 10% FBS for 24 h. […] (A) Effect of acute THS and THS+HONO. HepG2 cells were exposed to samples at 37° C. for 24 h. The extent of DNA damage was analyzed by % DNA in tail to total DNA from 90 cells. (B) HepG2 cells were exposed to chronic THS at varying dilutions under identical conditions as above.
(§2) Using the alkaline Comet assay, we examined the potential of NNA to cause DNA strand breaks in cultured human hepatocellular carcinoma (HepG2) cells. […]

[3] = system: 2-deoxyguanosine (dGuo); test: reaction of NNA with dGuo in vitro, DNA adduct formation; conditions: HPLC-UV, ESI-MS/MS, NMR
Excerpt: as §1
We discovered that NNA reacts with dGuo (“dG”) and dCyt (“dC”) to form various DNA adducts. […] The chemical structure of this adduct has been proposed and validated using various NMR experiments. Because of its specific structural characteristic, this adduct can serve as a DNA damage “signature” by NNA, thus a potential biomarker for monitoring exposure to thirdhand smoke.
as §2

Row | Structure (SMILES) | formation of adducts with dC [1] | DNA damage / DNA strand breaks (Comet assay) [2] | formation of DNA adducts with dGuo [3]
1 | CN(N=O)C(CCC=O)c1cccnc1 (stereo not shown) [NNA, 1-(N-methyl-N-nitrosamino)-1-(3-pyridinyl)-4-butanal] | reacts with dC to form multiple adducts | concentration-dependent DNA strand breaks; also recorded: induces DNA damage at low nanomolar concentrations; also recorded: results in DNA strand breaks in exposed cells; also recorded: causes significant DNA damage at nM concentrations | forms multiple DNA adducts in vitro
2 | CN(CCCC(=O)c1cccnc1)N=O [NNK, 4-(methylnitrosamino)-1-(3-pyridyl)-1-butanone, reference compound] | – | induces DNA damage at low nanomolar concentrations; also recorded: causes significant DNA damage at nM concentrations | –
